Experimental findings from PubChem BioAssay (NCI) are described below.

Each structure is given as a SMILES string.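 Cultured in 96-well plates, cells were exposed to test compound for 48 hours across five concentrations. The concentration for full growth arrest is given as TGI.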 A value given as a limit tells only on which side of the number the result lay.

One assay relates to OVCAR-8 ovarian. Description: NCI-60 cell line screen, 48 h.
Regarding `COC1C(O)C(O[C@H]2CC[C@@]3(C)C(CC[C@@H]4[C@@H]3CC[C@]3(C)[C@@H](C(C)OC5OC(CO)C(O)C(O)C5O)CC[C@]43O)C2)OC(C)C1OC1OC(CO)C(O)C(O)C1O` (stereo not given in full), the TGI is above 100 µM.

Molecule `Clc1nncc2sc(-c3ccccc3)nc12` yielded a TGI of 59.3 µM.

Consider `Cc1cc(NS(=O)(=O)c2ccc(NC(NC(=O)C(C(F)(F)F)C(F)(F)F)(C(F)(F)F)C(F)(F)F)cc2)no1`, for which the TGI is above 100 µM.

With `C/C(=N\Nc1nc2ccccc2s1)c1ccc2ccccc2n1`, the TGI is above 100 µM.

As for `O=S1SC(=S)C2C=CC=CC21` (stereo not given), the TGI was above 100 µM.

With `COc1ccc(Oc2cnn(C(Br)(Br)C(C)=O)c(=O)c2Br)cc1`, the TGI came to 27 µM.

Molecule `C[C@]12CC[C@@H]3c4ccc(O)cc4CC[C@H]3[C@@H]1C/C(=C\c1ccc(C#N)cc1)C2=O` yielded a TGI above 100 µM.

`CC1(C)CC(C#Cc2ccccc2)CC(C)(C)N1O` displayed a TGI of 64 µM.

On to `Cc1cc(O)c(-c2cc(O)c(C)cc2O)cc1O`, for which the TGI came to 16.7 µM.

Molecule `O=C(O)CN(CC(=O)O)C(C(=O)O)c1ccccc1` (stereo not given) returned a TGI above 100 µM.

`Cc1ccc(NC(=O)/C(Cc2nc3ccc([N+](=O)[O-])cc3[nH]c2=O)=N\NC(=O)C[n+]2ccccc2)c(C)c1` returned a TGI of 74 µM.

`CCNc1ncnc2sc(SCc3ccccc3)nc12`: the TGI is above 100 µM.

`O=C(OCC1OC(n2nc(Cn3nnc(-c4cccnc4)n3)n(-c3cccc4ccccc34)c2=S)C(OC(=O)c2ccccc2)C1OC(=O)c1ccccc1)c1ccccc1` (stereo not given) displayed a TGI above 100 µM.

For the molecule `C[n+]1c(/C=C/c2ccc(O)c3ncccc23)[se]c2ccccc21`, the TGI was 29.8 µM.

Molecule `COc1ccc(NC(C)c2ccncc2)cc1` (stereo not given) gave a TGI above 100 µM.

In turn, `O=C1C=CC(=O)C(CNc2ccc(C(=O)OCc3ccccc3)cc2)=C1` had a TGI of 16.8 µM.

`CC1=NNC(=O)C1C1CC(c2c[nH]c3ccccc23)=NN=C1Cl` (stereo not given) registered a TGI above 100 µM.

The molecule `CC(C)C1=C(O)C2=C(C(=O)C1=O)C1(C)CCCC(C)(C)C1C(O)C2OC=O` (stereo not given) returned a TGI of 20.1 µM.

Regarding `CC(C)[Si](OC/C(=C/COC(C)(C)C)[C@H]1CC=C(C(=O)c2ccccc2N2CN(C)C(=O)N(C)C2)C1)(C(C)C)C(C)C`, the TGI was 18.1 µM.

The molecule `COc1ccc2c(c1)c(=O)c1c(NCCNCCO)ccc3c(=O)n(CCN(C)C)c(=O)n2c31` had a TGI of 1.16 µM.

`CC(C)N1CN(c2ccccc2)C2(CCN(CCCC(=O)c3ccc(F)cc3)CC2)C1=O` had a TGI above 82 µM.

Regarding `CC(C)=CCC[C@@H](C)C1=C(O)C(N)=C(C)C(=O)C1=O`, the TGI is above 64.8 µM.

The molecule `CCOC(=O)C1=CC(C)(C(=O)OCC)Nc2c(nc(N)[nH]c2=O)N1` (stereo not given) returned a TGI above 10 µM.

`c1ccc(C2CC(=NC3CCCCC3)Nc3ccccc3N2)cc1` (stereo not given) yielded a TGI above 100 µM.

Another assay concerns SK-MEL-5 melanoma. Description: NCI-60 cell line screen, 48 h.
As for `COC1C(O)C(O[C@H]2CC[C@@]3(C)C(CC[C@@H]4[C@@H]3CC[C@]3(C)[C@@H](C(C)OC5OC(CO)C(O)C(O)C5O)CC[C@]43O)C2)OC(C)C1OC1OC(CO)C(O)C(O)C1O` (stereo not given in full), the TGI was above 100 µM.

As for `Clc1nncc2sc(-c3ccccc3)nc12`, the TGI is 46.3 µM.

`Cc1cc(NS(=O)(=O)c2ccc(NC(NC(=O)C(C(F)(F)F)C(F)(F)F)(C(F)(F)F)C(F)(F)F)cc2)no1` yielded a TGI above 100 µM.

`C/C(=N\Nc1nc2ccccc2s1)c1ccc2ccccc2n1` displayed a TGI above 100 µM.

`O=S1SC(=S)C2C=CC=CC21` (stereo not given) registered a TGI above 100 µM.

Take `COc1ccc(Oc2cnn(C(Br)(Br)C(C)=O)c(=O)c2Br)cc1`: the TGI amounted to 30 µM.

For `C[C@]12CC[C@@H]3c4ccc(O)cc4CC[C@H]3[C@@H]1C/C(=C\c1ccc(C#N)cc1)C2=O`, the TGI is above 100 µM.

Take `CC1(C)CC(C#Cc2ccccc2)CC(C)(C)N1O`: the TGI was 30.7 µM.

As to `Cc1cc(O)c(-c2cc(O)c(C)cc2O)cc1O`, the TGI was found to be 28.4 µM.

Take `O=C(O)CN(CC(=O)O)C(C(=O)O)c1ccccc1` (stereo not given): the TGI was above 100 µM.

`Cc1ccc(NC(=O)/C(Cc2nc3ccc([N+](=O)[O-])cc3[nH]c2=O)=N\NC(=O)C[n+]2ccccc2)c(C)c1` came in with a TGI of 55.4 µM.

`CCNc1ncnc2sc(SCc3ccccc3)nc12` came in with a TGI above 100 µM.

`O=C(OCC1OC(n2nc(Cn3nnc(-c4cccnc4)n3)n(-c3cccc4ccccc34)c2=S)C(OC(=O)c2ccccc2)C1OC(=O)c1ccccc1)c1ccccc1` (stereo not given) came in with a TGI above 100 µM.

`C[n+]1c(/C=C/c2ccc(O)c3ncccc23)[se]c2ccccc21` gave a TGI of 26.5 µM.

As for `COc1ccc(NC(C)c2ccncc2)cc1` (stereo not given), the TGI is above 100 µM.

Molecule `O=C1C=CC(=O)C(CNc2ccc(C(=O)OCc3ccccc3)cc2)=C1` displayed a TGI of 11.6 µM.

`CC1=NNC(=O)C1C1CC(c2c[nH]c3ccccc23)=NN=C1Cl` (stereo not given) yielded a TGI above 100 µM.

The molecule `CC(C)C1=C(O)C2=C(C(=O)C1=O)C1(C)CCCC(C)(C)C1C(O)C2OC=O` (stereo not given) displayed a TGI of 18.9 µM.

`CC(C)[Si](OC/C(=C/COC(C)(C)C)[C@H]1CC=C(C(=O)c2ccccc2N2CN(C)C(=O)N(C)C2)C1)(C(C)C)C(C)C` came in with a TGI of 23.1 µM.

Molecule `COc1ccc2c(c1)c(=O)c1c(NCCNCCO)ccc3c(=O)n(CCN(C)C)c(=O)n2c31` returned a TGI of 0.598 µM.

`CC(C)N1CN(c2ccccc2)C2(CCN(CCCC(=O)c3ccc(F)cc3)CC2)C1=O` showed a TGI of 6.53 µM.

For `CC(C)=CCC[C@@H](C)C1=C(O)C(N)=C(C)C(=O)C1=O`, the TGI is above 86 µM.

As for `CCOC(=O)C1=CC(C)(C(=O)OCC)Nc2c(nc(N)[nH]c2=O)N1` (stereo not given), the TGI is above 10 µM.

Regarding `c1ccc(C2CC(=NC3CCCCC3)Nc3ccccc3N2)cc1` (stereo not given), the TGI turned out to be 43.7 µM.

The subject of another assay is SN12C renal. Kind of assay: NCI-60 cell line screen, 48 h.
Molecule `COC1C(O)C(O[C@H]2CC[C@@]3(C)C(CC[C@@H]4[C@@H]3CC[C@]3(C)[C@@H](C(C)OC5OC(CO)C(O)C(O)C5O)CC[C@]43O)C2)OC(C)C1OC1OC(CO)C(O)C(O)C1O` (stereo not given in full) returned a TGI above 100 µM.

Regarding `Clc1nncc2sc(-c3ccccc3)nc12`, the TGI turned out to be 57.7 µM.

`Cc1cc(NS(=O)(=O)c2ccc(NC(NC(=O)C(C(F)(F)F)C(F)(F)F)(C(F)(F)F)C(F)(F)F)cc2)no1` registered a TGI above 100 µM.

In the case of `C/C(=N\Nc1nc2ccccc2s1)c1ccc2ccccc2n1`, the TGI is above 100 µM.

In turn, `O=S1SC(=S)C2C=CC=CC21` (stereo not given) came in with a TGI above 100 µM.

Consider `COc1ccc(Oc2cnn(C(Br)(Br)C(C)=O)c(=O)c2Br)cc1`, for which the TGI came out at 28.5 µM.

On to `C[C@]12CC[C@@H]3c4ccc(O)cc4CC[C@H]3[C@@H]1C/C(=C\c1ccc(C#N)cc1)C2=O`, for which the TGI is above 100 µM.

`CC1(C)CC(C#Cc2ccccc2)CC(C)(C)N1O` showed a TGI of 28.8 µM.

Consider `Cc1cc(O)c(-c2cc(O)c(C)cc2O)cc1O`, for which the TGI is 13.6 µM.

`O=C(O)CN(CC(=O)O)C(C(=O)O)c1ccccc1` (stereo not given): the TGI is above 100 µM.

`Cc1ccc(NC(=O)/C(Cc2nc3ccc([N+](=O)[O-])cc3[nH]c2=O)=N\NC(=O)C[n+]2ccccc2)c(C)c1` gave a TGI of 98.1 µM.

In turn, `CCNc1ncnc2sc(SCc3ccccc3)nc12` displayed a TGI above 100 µM.
